Assay [1] concerns BT-549. The following applies: 72 h. Put shortly:
(§1)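 Two sequential readouts followed a 72 h incubation of breast cancer cell lines with compound at 5 concentrations in 10-fold steps over a compound-specific 10,000-fold range: CellTox Green fluorescence (485/520 nm) for cell death, then CellTiter-Glo luminescence, after 10 min at room temperature, for viability. Each plate was normalised to 0.1 % DMSO and a positive kill control. Dose-response curves were fitted for EC50, censored at the top concentration.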

The test system of assay [2] is MDA-MB-468. As to conditions: 72 h. The method in brief:
as §1

In assay [3] the test system is MDA-MB-436. As to conditions: 72 h. Put shortly: as §1
Assay [4] concerns CAL-51. The following applies: 72 h. The method in brief: as §1
Assay [5] relates to BT-549. Briefly: normalised viability (% of control), CellTiter-Blue; higher = more viable cells (100 = DMSO, 0 = benzethonium chloride kill control). As to conditions: incubation time: 72 h. On the procedure: (§2)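 DSRT, CellTiter-Blue viability, 72 h incubation. Signal is normalised to DMSO and benzethonium chloride controls. Value is the normalised response at dose 1.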
In assay [6] the test system is HCC1599. The description is as above. As to conditions: incubation time: 72 h. How it is done:
as §2

In assay [7] the test system is MDA-MB-231. Described as above. As to conditions: incubation time: 72 h. On the procedure:
as §2

The subject of assay [8] is HCC1143. Described as above. The following applies: incubation time: 72 h. On the procedure: as §2
In assay [9] the test system is CAL-85-1. The assay is described as above. As to conditions: incubation time: 72 h. How it is done: as §2
Assay [10] deals with MDA-MB-468. The description is as above. The following applies: incubation time: 72 h. On the procedure:
as §2

Assay [11] deals with CAL-148. The assay is described as above. The following applies: incubation time: 72 h. On the procedure:
as §2

In assay [12] the test system is HCC1937. Described as above. The following applies: incubation time: 72 h. On the procedure: as §2
Assay [13] concerns MDA-MB-436. Described as above. As to conditions: incubation time: 72 h. How it is done:
as §2

In assay [14] the test system is HDQ-P1. The description is as above. The following applies: incubation time: 72 h. On the procedure: as §2
Assay [15] deals with MFM-223. Described as above. As to conditions: incubation time: 72 h. On the procedure: as §2
Assay [16] deals with MDA-MB-453. Described as above. The following applies: incubation time: 72 h. On the procedure: as §2
Assay [17] has as its system CAL-51. Described as above. The following applies: incubation time: 72 h. On the procedure: as §2
Assay [18] relates to BT-474. Described as above. As to conditions: incubation time: 72 h. How it is done: as §2
The test system of assay [19] is DU-4475. Described as above. The following applies: incubation time: 72 h. How it is done:
as §2

In assay [20] the test system is CAL-120. The assay is described as above. As to conditions: incubation time: 72 h. On the procedure:
as §2

Assay [21] deals with SK-BR-3. The assay is described as above. The following applies: incubation time: 72 h. On the procedure: as §2
The subject of assay [22] is Hs578T. Described as above. The following applies: incubation time: 72 h. How it is done:
as §2

Assay [23] deals with HCC1143. The following applies: 72 h. Put shortly: (§3)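 Plates of 384 wells holding compound in 5 µl medium received breast cancer cell lines in 20 µl suspension and were incubated 72 h. CellTiter-Blue (2.5 µl, 2 h, 37 °C) was used for viability, read at 560/590 nm, and every plate was normalised to vehicle and a positive kill control and assessed by Z'-factor. The EC50 derives from a percent-inhibition dose-response curve fit censored at the highest concentration, leaving out rows whose drug sensitivity score was zero.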

Assay [24] deals with CAL-120. The following applies: 72 h. Put shortly:
as §3

In assay [25] the test system is MDA-MB-231. The following applies: 72 h. Put shortly: as §1
Assay [26] concerns MFM-223. The following applies: 72 h. The method in brief:
as §1

Assay [27] has as its system CAL-120. As to conditions: 72 h. The method in brief: as §1
The source holds these as a separate data set.

The subject of assay [28] is SK-BR-3. As to conditions: 72 h. Put shortly: as §1
Assay [29] deals with MCF-10A. The following applies: 72 h. The method in brief: as §1

As to `Cc1c(Cn2c(C)nc3c(C(=O)O)cc(N4CCOCC4)cc32)cccc1C(F)(F)F`, the “EC50, CellTiter-Glo” value is 0.0536 µM in [1], 0.534 µM in [2], over 10 µM in assay [3] and 0.00816 µM in [4].

`Cn1cc(CNCC2CCN(c3ncc(C(=O)NO)cn3)CC2)c2ccccc21`: the normalised viability is 88.6% in [5] (0.1 nM); 101% in assay [6] (0.1 nM); 95.6% in [7] (0.1 nM); 95.7% in assay [8] (0.1 nM); 84.9% in assay [9] (0.1 nM); 91.1% in assay [10] (0.1 nM). In addition, the normalised viability amounted to 103% in [11] (0.1 nM); 106% in assay [12] (0.1 nM); 87.9% in [13] (0.1 nM); 83.6% in assay [14] (0.1 nM); 89.5% in assay [15] (0.1 nM); 98.8% in [16] (0.1 nM). The normalised viability amounted to 105% in [17] (0.1 nM); 98.1% in assay [18] (0.1 nM); 97.6% in assay [19] (0.1 nM); 89.2% in assay [20] (0.1 nM); 97.5% in assay [21] (0.1 nM); 120% in assay [22] (0.1 nM). Also, the “EC50, CellTiter-Blue viability” value in assay [23] was determined as 0.0186 µM; in assay [24] it was 0.0133 µM.

For `O=C(NC[C@H](O)CO)c1ccncc1Nc1ccc(I)cc1F`, the normalised viability in assay [5] (1 nM) was 111%; in assay [6] (1 nM), 108%; in [7] (1 nM), 92.5%; in assay [8] (1 nM), 87.6%; in assay [9] (1 nM) it was 92.1%; in [10] (1 nM), 104%. Besides, the normalised viability in assay [11] (1 nM) worked out at 92.3%; in assay [12] (1 nM), 87.6%; in assay [13] (1 nM), 124%; in assay [14] (1 nM) it was 103%; in [15] (1 nM), 97.9%; in assay [16] (1 nM), 87.9%. For the same compound, the normalised viability in assay [17] (1 nM) worked out at 99.6%; in assay [18] (1 nM), 96.8%; in assay [19] (1 nM) it was 92.6%; in assay [20] (1 nM) it was 81.3%; in assay [21] (1 nM) it was 92.1%; in assay [22] (1 nM), 111%. For the same compound, the figures for the “EC50, CellTiter-Blue viability” value in [23] and in assay [24] were 0.00791 µM and 0.421 µM, respectively.

Turning to `CC/C(=C(\c1ccc(O)cc1)c1ccc(OCCN(C)C)cc1)c1ccccc1` [4-hydroxytamoxifen], the “EC50, CellTiter-Glo” value in assay [1] stood at 1.9 µM; in assay [25] it was 3.3 µM; in [2] it was 3.66 µM; in [3] it was 7.82 µM; in assay [26], 8.81 µM; in [27], 3.01 µM. The “EC50, CellTiter-Glo” value in [28] was determined as 5.72 µM.

In the case of `COc1cc(CCc2cc(NC(=O)c3ccc(N4CC(C)NC(C)C4)cc3)n[nH]2)cc(OC)c1` (stereo not drawn) [AZD4547], the normalised viability came to 111% in assay [5] (0.1 nM); 115% in assay [6] (0.1 nM); 100% in [7] (0.1 nM); 96% in assay [8] (0.1 nM); 89.7% in [9] (0.1 nM); 125% in [10] (0.1 nM). Moreover, the normalised viability worked out at 113% in assay [11] (0.1 nM); 105% in assay [12] (0.1 nM); 94.4% in assay [13] (0.1 nM); 139% in assay [14] (0.1 nM); 91.8% in assay [15] (0.1 nM); 105% in assay [16] (0.1 nM). The normalised viability in assay [17] (0.1 nM) was determined as 117%; in [18] (0.1 nM), 112%; in assay [19] (0.1 nM), 95.7%; in assay [20] (0.1 nM), 93.6%; in [21] (0.1 nM), 102%; in [22] (0.1 nM), 108%. Moreover, the “EC50, CellTiter-Glo” value in [29] is 0.0912 µM; in assay [1], over 1 µM; in [26], 0.00591 µM; in assay [27] it was 0.0688 µM.
